Reference: patent US20170081338A1, “SUBSTITUTED HETEROARYL COMPOUNDS AND METHODS OF USE” (Sunshine Lake Pharma Co., Ltd., priority 2015, published 2017)

Legend:
Aurora-A (h) = biological target: T1, Aurora-A (h) (Homo sapiens, UniProt O14965); test: Aurora-A (h) kinase assay; format: biochemical
T1 construct: purchased Millipore UK Ltd (contract assay service)
T1 sequence (O14965 1-403): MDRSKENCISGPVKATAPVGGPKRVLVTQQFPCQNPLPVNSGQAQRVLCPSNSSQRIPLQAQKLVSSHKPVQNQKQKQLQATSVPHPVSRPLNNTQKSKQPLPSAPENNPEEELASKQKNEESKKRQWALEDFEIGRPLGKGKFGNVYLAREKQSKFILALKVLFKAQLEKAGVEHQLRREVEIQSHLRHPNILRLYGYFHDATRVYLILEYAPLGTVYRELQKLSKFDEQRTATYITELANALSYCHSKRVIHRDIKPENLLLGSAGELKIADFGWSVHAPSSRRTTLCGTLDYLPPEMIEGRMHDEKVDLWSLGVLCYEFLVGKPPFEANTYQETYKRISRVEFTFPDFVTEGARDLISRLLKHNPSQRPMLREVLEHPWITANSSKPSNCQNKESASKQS
Experimental: The above assay procedure can be used to determine the IC50 for inhibition and/or the inhibition constant, Ki. The IC50 is defined as the concentration of compound required to reduce the enzyme activity by 50% under the condition of the assay. The IC50 value is estimated by preparing a 10 point curve using a 1/2 log dilution series (for example, a typical curve may be prepared using the following compound concentrations: 3 μM, 1 μM, 0.3 μM, 0.1 μM, 0.03 μM, 0.01 μM, 0.003 μM, 0.001 μM, 0.0003 μM and 0 μM).
Aurora-A (h) is incubated with 8 mM MOPS pH 7.0, 0.2 mM EDTA, 200 μM LRRASLG (Kemptide), 10 mM MgAcetate and [γ-^33P-ATP] (specific activity approx. 500 cpm/pmol, concentration as required). The reaction is initiated by the addition of the MgATP mix. After incubation for 40 minutes at room temperature, the reaction is stopped by the addition of 3% phosphoric acid solution. 10 μL of the reaction is then spotted onto a P30 filtermat and washed three times for 5 minutes in 75 mM phosphoric acid and once in methanol prior to drying and scintillation counting.
The kinase assays described herein were performed at Millipore UK Ltd, Dundee Technology Park, Dundee DD2 1SW, UK.

[1] = Pharmacokinetics after intravenous and oral administration in rats; format: in vivo; conditions: for Clearance (CL) after iv dosing / AUC(0-t) / half-life / Vd: dose 1 mg/kg, iv dosing; for F: oral bioavailability; for AUC(0-t) / half-life / Vd: rat, plasma; for Vd: read-out: Vss
Experimental: The LC/MS/MS system used in the analysis consists of an Agilent 1200 Series vacuum degasser, binary pump, well-plate autosampler, thermostatted column compartment, the Agilent G6430 Triple Quadrupole Mass Spectrometer with an electrosprayionization (ESI) source. Quantitative analysis was carried out using MRM mode. The parameters for MRM transitions are in the Table A.
An Agilent XDB-C18, 2.1×30 mm, 3.5 μM column was used for the analysis. 5 μL of the samples were injected. Analysis condition: The mobile phase was 0.1% formic acid in water (A) and 0.1% formic acid in methanol (B). The flow rate was 0.4 mL/min. And the gradient of Mobile phase was in the Table B.
Alternatively, an Agilent 6330 series LC/MS/MS spectrometer equipped with G1312A binary pumps, a G1367A autosampler and a G1314C UV detector were used in the analysis. An ESI source was used on the LC/MS/MS spectrometer. The analysis was done in positive ion mode as appropriate and the MRM transition for each analyte was optimized using standard solution. A Capcell MP-C18 100×4.6 mm I.D., […] column (Phenomenex, Torrance, Calif., USA) was used during the analysis. The mobile phase was 5 mM ammonia acetate, 0.1% MeOH in water (A): 5 mM ammonia acetate, 0.1% MeOH in acetonitrile (B) (70/30, v/v). The flow rate was 0.6 mL/min. Column was maintained at ambient temperature. 20 μL of the samples were injected.
The compounds disclosed herein are assessed in pharmacokinetic studies in mice, rats, dogs or monkeys. The compounds are administered as a water solution, 2% HPMC+1% TWEEN®80 in water solution, 5% DMSO+5% solutol in saline, 4% MC suspension or capsule. For the intravenous administration, the animals are generally given at 0.5, 1 or 2 mg/kg dose. For the oral (p.o.) dosing, mice and rats are generally given 0.5, 1, 5 or 10 mg/kg dose, and dogs and monkeys are generally given 10 mg/kg dose. The blood samples (0.3 mL) are drawn at 0.25, 0.5, 1.0, 2.0, 3.0, 4.0, 6.0, 8.0, 12 and 24 h time points or 0.083, 0.25, 0.5, 1.0, 2.0, 4.0, 6.0, 8.0 and 24 h time points and centrifuged at 3,000 or 4000 rpm for 2 to 10 min. The plasma solutions are collected, and stored at −20° C. or −70° C. until analyzed by LC/MS/MS as described above.

[2] = Compound stability in rat liver microsomes; format: in vitro ADME; conditions: pH 7.4; for half-life at 5 μM: rat liver microsomes 0.5 mg protein/mL, compound 5 μM, NADPH, 37° C., read-out: Rat T1/2; for CLint scaled at 5 μM: rat liver microsomes, in vivo CLint extrapolated
Experimental: (§1) Human or rat liver microsomes incubations were conducted in duplicate in polypropylene tubes. The typical incubation mixtures consisted of human or rat liver microsomes (0.5 mg protein/mL), compounds of interest (5 μM) and NADPH (1.0 mM) in a total volume of 200 μL potassium phosphate buffer (PBS, 100 mM, pH 7.4). Compounds were dissolved in DMSO and diluted with PBS such that the final concentration of DMSO was 0.05%. The enzymatic reactions were commenced with the addition of protein after a 3-min preincubation and incubated in a water bath open to the air at 37° C. Reactions were terminated at various time points (0, 5, 10, 15, 30, 60 min) by adding equal volume of ice-cold acetonitrile. The samples were stored at −80° C. until LC/MS/MS assays.
(§2) The concentrations of compounds in the incubation mixtures of human or rat liver microsomes were determined by a LC/MS/MS method. The ranges of the linearity in the concentration range were determined for each tested compounds.
(§3) A parallel incubation was performed using denatured microsomes as the negative control, and reactions were terminated at various time points (0, 15, 60 min) after incubation at 37° C.
(§4) Dextromethorphan (70 μM) was selected as the positive control, and reactions were terminated at various time points (0, 5, 10, 15, 30, 60 min) after incubation at 37° C. Both positive and negative control samples were included in each assay to ensure the integrity of the microsomal incubation system.
(§5) The concentrations of compounds in human or rat liver microsome incubations were plotted as a percentage of the relevant zero time point control for each reaction. The in vivo CLint were extrapolated (ref.: Naritomi, Y.; Terashita, S.; Kimura, S.; Suzuki, A.; Kagayama, A.; and Sugiyama, Y.; Prediction of human hepatic clearance from in vivo animal experiments and in vitro metabolic studies with liver microsomes from animals and humans. Drug Metab. Dispos., 2001, 29: 1316-1324).

[3] = Compound stability in human liver microsomes; format: in vitro ADME; conditions: pH 7.4; for half-life at 5 μM: human liver microsomes 0.5 mg protein/mL, compound 5 μM, NADPH, 37° C., read-out: Human T1/2; for CLint scaled at 5 μM: human liver microsomes, in vivo CLint extrapolated
Experimental: as §1, §2, §3, §4, §5

Structure (SMILES)	IC50 (Aurora-A (h)) [nM]	Clearance (CL) after iv dosing [1] [mL/min/kg]	F [1] [%]	AUC(0-t) [1] [ng·h/mL]	half-life [1] [min]	Vd [1] [L/kg]	half-life at 5 μM [2] [min]	CLint scaled at 5 μM [2] [mL/min/kg]	half-life at 5 μM [3] [min]	CLint scaled at 5 μM [3] [mL/min/kg]
Cn1cc(Nc2ncc(Cl)c(N[C@@H]3COC4C3OC[C@@H]4NS(=O)(=O)Cc3ccccc3)n2)cn1 (stereo partly drawn) [Ex. 19, N-((3S,6R)-6-((5-chloro-2-((1-methyl-1H-pyrazol-4-yl)amino)pyrimidin-4-yl)amino)hexahydrofuro[3,2-b]furan-3-yl)-1-phenylmethanesulfonamide]	10	44.8	28.2	374	52.8	2.37				
Cn1cc(Nc2ncc(Cl)c(N[C@@H]3COC4C3OC[C@@H]4NS(=O)(=O)NC3CCOC3)n2)cn1 (stereo partly drawn) [Ex. 29, 5-chloro-N-(1-methyl-1H-pyrazol-4-yl)-4-(((3R,6S)-6-((N-(tetrahydrofuran-3-yl)sulfamoyl)amino)hexahydrofuro[3,2-b]furan-3-yl)amino)pyrimidin-2-amine]	16									
CC(CS(=O)(=O)N[C@H]1COC2C1OC[C@H]2Nc1nc(Nc2cnn(C)c2)ncc1Cl)C(F)(F)F (stereo partly drawn) [Ex. 40, N-((3S,6R)-6-((5-chloro-2-((1-methyl-1H-pyrazol-4-yl)amino)pyrimidin-4-yl)amino)hexahydrofuro[3,2-b]furan-3-yl)-3,33-trifluoro-2-methylpropane-1-sulfonamide]		30.3	77.3	533	31.2	1.22	19.7	126	25.2	69
CC(CS(=O)(=O)N[C@H]1COC2C1OC[C@H]2Nc1nc(Nc2cnn(C)c2)ncc1Cl)C(F)F (stereo partly drawn) [Ex. 42, N-((3S,6R)-6-((5-chloro-2-((1-methyl-1H-pyrazol-4-yl)amino)pyrimidin-4-yl)amino)hexahydrofuro[3,2-b]furan-3-yl)-3,3-difluoro-2-methylpropane-1-sulfonamide]		32.5	33.1	517	46.2	1.37	29.6	83.9	29.3	59.3
CC(C)=CS(=O)(=O)N[C@H]1COC2C1OC[C@H]2Nc1nc(Nc2cnn(C)c2)ncc1Cl (stereo partly drawn) [Ex. 43, N-((3S,6R)-6-((5-chloro-2-((1-methyl-1H-pyrazol-4-yl)amino)pyrimidin-4-yl)amino)hexahydrofuro[3,2-b]furan-3-yl)-2-methylprop-1-ene-1-sulfonamide]		35	57.1	479	47.4	1.75	25.7	96.5	22.9	76

More lines, now with the values ahead:

IC50 (Aurora-A (h)) [nM]	Clearance (CL) after iv dosing [1] [mL/min/kg]	F [1] [%]	AUC(0-t) [1] [ng·h/mL]	half-life [1] [min]	Vd [1] [L/kg]	half-life at 5 μM [2] [min]	CLint scaled at 5 μM [2] [mL/min/kg]	half-life at 5 μM [3] [min]	CLint scaled at 5 μM [3] [mL/min/kg]	Structure (SMILES)
1180										Cn1cc(Nc2ncc(Cl)c(N[C@H]3COC4C3OC[C@H]4NS(=O)(=O)CC(C)(C)C)n2)cn1 (stereo partly drawn) [Ex. 7, N-((3R,6S)-6-((5-chloro-2-((1-methyl-1H-pyrazol-4-yl)amino)pyrimidin-4-yl)amino)hexahydrofuro[3,2-b]furan-3-yl)-2,2-dimethylpropane-1-sulfonamide]
575										CC(C)CS(=O)(=O)N[C@H]1COC2C1OC[C@@H]2Nc1nc(Nc2cnn(C)c2)ncc1Cl (stereo partly drawn) [Ex. 28, N-((3S,6S)-6-((5-chloro-2-((1-methyl-1H-pyrazol-4-yl)amino)pyrimidin-4-yl)amino)hexahydrofuro[3,2-b]furan-3-yl)-2-methylpropane-1-sulfonamide]
478										CC(C)CS(=O)(=O)N[C@@H]1COC2C1OC[C@H]2Nc1nc(Nc2cnn(C)c2)ncc1Cl (stereo partly drawn) [Ex. 32, N-((3R,6R)-6-((5-chloro-2-((1-methyl-1H-pyrazol-4-yl)amino)pyrimidin-4-yl)amino)hexahydrofuro[3,2-b]furan-3-yl)-2-methylpropane-1-sulfonamide]
51										Cn1cc(Nc2ncc(Cl)c(N[C@@H]3COC4C3OC[C@@H]4NS(=O)(=O)CC(F)F)n2)cn1 (stereo partly drawn) [Ex. 36, N-((3S,6R)-6-((5-chloro-2-((1-methyl-1H-pyrazol-4-yl)amino)pyrimidin-4-yl)amino)hexahydrofuro[3,2-b]furan-3-yl)-2,2-difluoroethanesulfonamide]
	17	106.6	982	32.4	0.69	47.7	52.1	65.6	26.5	Cn1cc(Nc2ncc(Cl)c(N[C@@H]3COC4C3OC[C@@H]4NS(=O)(=O)CC(C)(F)F)n2)cn1 (stereo partly drawn) [Ex. 38, N-((3S,6R)-6-((5-chloro-2-((1-methyl-1H-pyrazol-4-yl)amino)pyrimidin-4-yl)amino)hexahydrofuro[3,2-b]furan-3-yl)-2,2-difluoropropane-1-sulfonamide]
	57.3	37.0	290	49.2	1.64	78.7	31.5	102	17	Cn1cc(Nc2ncc(Cl)c(N[C@@H]3COC4C3OC[C@@H]4NS(=O)(=O)CC(C)(C)O)n2)cn1 (stereo partly drawn) [Ex. 41, N-((3S,6R)-6-((5-chloro-2-((1-methyl-1H-pyrazol-4-yl)amino)pyrimidin-4-yl)amino)hexahydrofuro[3,2-b]furan-3-yl)-2-hydroxy-2-methylpropane-1-sulfonamide]
